In patent US6914045B2, “Glycopeptide antibiotics” (Wyeth Holdings Corporation, priority 2001, dated 2005):
≈ marks a conversion by molar mass, not a printed value. Numbered stars: 1 amine (or outer) side, 2 acyl side, 3 side chain; on linkers, the order of the positions; unused ones are H or OH. Square brackets hold non-standard residues; d marks the D form. Peptide text beside a SMILES is read from it. ξ: configuration not given here. X1 = N=C1NCC(C(O)C(N[*:1])C(=O)[*:2])N1C1OC(CO)C(O)C(O)C1O; ξEnduracididine(βξ-OH,4'ξ) = N=C1NCC(C(O)C(N)C(=O)O)N1; Tyr(3-NO2) = N[CH](Cc1ccc(O)c([N+](=O)[O-])c1)C(=O)O; ξPhe(βξ-Me) = CC(c1ccccc1)C(N)C(=O)O

Key:
Assay in all cases: in vitro antibacterial evaluation, MIC by broth dilution
Format in all cases: cell-based
Enterococcus sp. = settings: broth dilution, 18 hours at 35° C.; for MIC Enterococcus faecalis (ATCC 29212): strain ATCC 29212; for MIC Enterococcus faecalis (GC 2242): strain GC 2242; for MIC Enterococcus faecium (GC 2243): strain GC 2243; for MIC Enterococcus faecalis (GC 4552): strain GC 4552; for MIC Enterococcus faecalis (GC 4553): strain GC 4553; for MIC Enterococcus faecalis (GC 4554): strain GC 4554; for MIC Enterococcus faecium (GC 4556): strain GC 4556; for MIC Enterococcus faecium (GC 4557): strain GC 4557; for MIC Enterococcus avium (GC 4558): strain GC 4558
Procedure: (§1) Methods for in vitro Antibacterial Evaluation (Table 1)
(§2) The minimum inhibitory concentration (MIC), the lowest concentration of the antibiotic which inhibits growth of the test organism, is determined by the broth dilution method using Muller-Hinton II […] (Baltimore Biological Laboratories) following the recommendations of the National Committee for Clinical Laboratory Standards [Methods for dilution antimicrobial susceptibility tests for bacteria that grow aerobically, approved standard M7-A2, National Committee for Clinical Laboratory Standards, Villanova, Pa.].
(§3) An inoculum level of 5×10^5 CFU/mL, and a range of antibiotic concentrations (64-0.06 μg/mL) is used. […] The test organisms include a spectrum of Gram-positive bacteria comprised of Staphylococcus sp., Streptococcus sp. and Enterococcus sp. These organisms include recent clinical isolates that are resistant to methicillin, penicillin and/or vancomycin.

Staphylococcus sp. = system: Staphylococcus sp.
Procedure: as §1, §2, §3

Streptococcus sp. = settings: broth dilution, 18 hours at 35° C.; for MIC Streptococcus agalactiae (GC 4564): strain GC 4564; for MIC Streptococcus pneumoniae (GC 4565): strain GC 4565
Procedure: as §1, §2, §3

Escherichia coli = settings: broth dilution, 18 hours at 35° C.; for MIC Escherichia coli (ATCC 25922): strain ATCC 25922; for MIC Escherichia coli (GC 4559): strain GC 4559; for MIC Escherichia coli (GC 4560): strain GC 4560
Method in brief: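 Broth dilution MIC per NCCLS M7-A2 in Mueller-Hinton II medium, inoculum 5×10^5 CFU/mL, antibiotic range 64-0.06 μg/mL. MIC taken as lowest concentration inhibiting growth.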

CC(c1ccccc1)C1NC(=O)CNC(=O)C(CO)NC(=O)C(C(O)C2CNC(=N)N2C2OC(CO)C(O)C(O)C2O)NC(=O)C(C(O)C2CNC(=N)N2)NC(=O)C(Cc2ccc(O)c([N+](=O)[O-])c2)NC1=O (stereo not drawn) [Example 8, Cyclo[glycyl-β-methylphenylalanyl-3-nitrotyrosyl-3-(2-iminoimidazolidin-4-yl)seryl-3-(3-hexopyranosyl-2-iminoimidazolidin-4-yl)serylseryl]] (cyclo(G[ξPhe(βξ-Me)][Tyr(3-NO2)][ξEnduracididine(βξ-OH,4'ξ)][X1]S); configuration not given here) was tested. Which “MIC Enterococcus faecalis (ATCC 29212)” value (Enterococcus sp.) did it give?
Its value is greater than 128 µg/mL.

What about the “MIC Enterococcus faecalis (GC 2242)” value (Enterococcus sp.) of the same compound?
The value was greater than 128 µg/mL.

And the “MIC Enterococcus faecium (GC 2243)” value (Enterococcus sp.)?
Its value is greater than 128 µg/mL.

What about the “MIC Enterococcus faecalis (GC 4552)” value (Enterococcus sp.) of the same compound?
Its value is greater than 128 µg/mL.

And the “MIC Enterococcus faecalis (GC 4553)” value (Enterococcus sp.)?
The value was greater than 128 µg/mL.

And the “MIC Enterococcus faecalis (GC 4554)” value (Enterococcus sp.)?
The value was greater than 128 µg/mL.

What about the “MIC Enterococcus faecium (GC 4556)” value (Enterococcus sp.) of the same compound?
Its value is greater than 128 µg/mL.

And the “MIC Enterococcus faecium (GC 4557)” value (Enterococcus sp.)?
Its value is greater than 128 µg/mL.

What about the “MIC Enterococcus avium (GC 4558)” value (Enterococcus sp.) of the same compound?
The value was greater than 128 µg/mL.

What about the “MIC Staphylococcus aureus (ATCC 29213)” value (Staphylococcus sp.; broth dilution, 18 hours at 35° C.; strain ATCC 29213) of the same compound?
Its value is greater than 128 µg/mL.

And the “MIC Staphylococcus aureus (GC 1131)” value (Staphylococcus sp.; broth dilution, 18 hours at 35° C.; strain GC 1131)?
The value was greater than 128 µg/mL.

What about the “MIC Staphylococcus aureus (GC 4541)” value (Staphylococcus sp.; broth dilution, 18 hours at 35° C.; strain GC 4541) of the same compound?
Its value is greater than 128 µg/mL.

What about the “MIC Staphylococcus aureus (GC 4542)” value (Staphylococcus sp.; broth dilution, 18 hours at 35° C.; strain GC 4542) of the same compound?
The value was greater than 128 µg/mL.

And the “MIC Staphylococcus aureus-SMITH (GC 4543)” value (Staphylococcus sp.; broth dilution, 18 hours at 35° C.; strain GC 4543)?
The value was greater than 128 µg/mL.

And the “MIC Staphylococcus aureus (GC 4544)” value (Staphylococcus sp.; broth dilution, 18 hours at 35° C.; strain GC 4544)?
Its value is greater than 128 µg/mL.

What about the “MIC Staphylococcus aureus (GC 4545)” value (Staphylococcus sp.; broth dilution, 18 hours at 35° C.; strain GC 4545) of the same compound?
The value was greater than 128 µg/mL.

What about the “MIC Staphylococcus haemolyticus (GC 4546)” value (Staphylococcus sp.; broth dilution, 18 hours at 35° C.; strain GC 4546) of the same compound?
Its value is greater than 128 µg/mL.

And the “MIC Coagulase Negative Staphylococcus (GC 4547)” value (Staphylococcus sp.; broth dilution, 18 hours at 35° C.; strain GC 4547)?
Its value is greater than 128 µg/mL.

And the “MIC Coagulase Negative Staphylococcus (GC 4548)” value (Staphylococcus sp.; broth dilution, 18 hours at 35° C.; strain GC 4548)?
The value was greater than 128 µg/mL.

And the “MIC Coagulase Negative Staphylococcus (GC 4549)” value (Staphylococcus sp.; broth dilution, 18 hours at 35° C.; strain GC 4549)?
Its value is greater than 128 µg/mL.

What about the “MIC Coagulase Negative Staphylococcus (GC 4551)” value (Staphylococcus sp.; broth dilution, 18 hours at 35° C.; strain GC 4551) of the same compound?
Its value is greater than 128 µg/mL.

And the “MIC Coagulase Negative Staphylococcus (ID-3941)” value (Staphylococcus sp.; broth dilution, 18 hours at 35° C.; strain ID-3941)?
The value was greater than 128 µg/mL.

What about the “MIC Streptococcus agalactiae (GC 4564)” value (Streptococcus sp.) of the same compound?
The value was greater than 128 µg/mL.

And the “MIC Streptococcus pneumoniae (GC 4565)” value (Streptococcus sp.)?
Its value is greater than 128 µg/mL.

What about the “MIC Streptococcus pyogenes (ID-3187)” value (Streptococcus sp.; strain ID-3187) of the same compound?
The value was greater than 128 µg/mL.

What about the “MIC Escherichia coli (ATCC 25922)” value (Escherichia coli) of the same compound?
The value was greater than 128 µg/mL.

And the “MIC Escherichia coli (GC 4559)” value (Escherichia coli)?
Its value is greater than 128 µg/mL.

And the “MIC Escherichia coli (GC 4560)” value (Escherichia coli)?
The value was greater than 128 µg/mL.

With CC(=O)Nc1cc(CC2NC(=O)C(C(C)c3ccccc3)NC(=O)CNC(=O)C(CO)NC(=O)C(C(O)C3CNC(=N)N3C3OC(CO)C(O)C(O)C3O)NC(=O)C(C(O)C3CNC(=N)N3)NC2=O)ccc1O (stereo not drawn) [Example 13, Cyclo[-glycyl-β-methylphenylalanyl-3-acetamidotyrosyl-3-(2-iminoimidazolidin-4-yl)seryl-3-(3-hexopyranosyl-2-iminoimidazolodin-4-yl)serylseryl]] as the compound, how does the “MIC Enterococcus faecalis (ATCC 29212)” value (Enterococcus sp.) read?
Its value is greater than 64 µg/mL.

What about the “MIC Enterococcus faecalis (GC 2242)” value (Enterococcus sp.) of the same compound?
Its value is 64 µg/mL (≈ 62.3 µM).

And the “MIC Enterococcus faecium (GC 2243)” value (Enterococcus sp.)?
Its value is 64 µg/mL (≈ 62.3 µM).

What about the “MIC Enterococcus faecalis (GC 2691)” value (Enterococcus sp.; strain GC 2691) of the same compound?
Its value is greater than 64 µg/mL.

And the “MIC Enterococcus faecalis (GC 3059)” value (Enterococcus sp.; strain GC 3059)?
The value was greater than 64 µg/mL.

And the “MIC Enterococcus faecalis (GC 4552)” value (Enterococcus sp.)?
The value was greater than 64 µg/mL.

And the “MIC Enterococcus faecalis (GC 4553)” value (Enterococcus sp.)?
Its value is 64 µg/mL (≈ 62.3 µM).

What about the “MIC Enterococcus faecalis (GC 4554)” value (Enterococcus sp.) of the same compound?
Its value is greater than 64 µg/mL.

What about the “MIC Enterococcus faecium (GC 4556)” value (Enterococcus sp.) of the same compound?
The value was 64 µg/mL (≈ 62.3 µM).

And the “MIC Enterococcus faecium (GC 4557)” value (Enterococcus sp.)?
Its value is 64 µg/mL (≈ 62.3 µM).

What about the “MIC Enterococcus avium (GC 4558)” value (Enterococcus sp.) of the same compound?
The value was 64 µg/mL (≈ 62.3 µM).

What about the “MIC Enterococcus faecalis (GC 6189)” value (Enterococcus sp.; strain GC 6189) of the same compound?
The value was greater than 64 µg/mL.

What about the “MIC Staphylococcus aureus (ATCC 29213)” value (Staphylococcus sp.; strain ATCC 29213; broth dilution, 18 hours at 35° C.) of the same compound?
The value was 64 µg/mL (≈ 62.3 µM).

And the “MIC Staphylococcus aureus (GC 1131)” value (Staphylococcus sp.; strain GC 1131; broth dilution, 18 hours at 35° C.)?
The value was 64 µg/mL (≈ 62.3 µM).

What about the “MIC Staphylococcus aureus (GC 3051)” value (Staphylococcus sp.; strain GC 3051; broth dilution, 18 hours at 35° C.) of the same compound?
Its value is 64 µg/mL (≈ 62.3 µM).

And the “MIC Staphylococcus aureus (GC 3053)” value (Staphylococcus sp.; strain GC 3053; broth dilution, 18 hours at 35° C.)?
The value was 64 µg/mL (≈ 62.3 µM).

What about the “MIC Staphylococcus aureus (GC 4541)” value (Staphylococcus sp.; strain GC 4541; broth dilution, 18 hours at 35° C.) of the same compound?
Its value is 64 µg/mL (≈ 62.3 µM).

What about the “MIC Staphylococcus aureus (GC 4542)” value (Staphylococcus sp.; strain GC 4542; broth dilution, 18 hours at 35° C.) of the same compound?
The value was 64 µg/mL (≈ 62.3 µM).

What about the “MIC Staphylococcus aureus-SMITH (GC 4543)” value (Staphylococcus sp.; strain GC 4543; broth dilution, 18 hours at 35° C.) of the same compound?
The value was 64 µg/mL (≈ 62.3 µM).

What about the “MIC Staphylococcus aureus (GC 4544)” value (Staphylococcus sp.; strain GC 4544; broth dilution, 18 hours at 35° C.) of the same compound?
The value was 64 µg/mL (≈ 62.3 µM).

What about the “MIC Staphylococcus aureus (GC 4545)” value (Staphylococcus sp.; strain GC 4545; broth dilution, 18 hours at 35° C.) of the same compound?
The value was 64 µg/mL (≈ 62.3 µM).

What about the “MIC Staphylococcus haemolyticus (GC 4546)” value (Staphylococcus sp.; strain GC 4546; broth dilution, 18 hours at 35° C.) of the same compound?
Its value is 64 µg/mL (≈ 62.3 µM).

What about the “MIC Coagulase Negative Staphylococcus (GC 4547)” value (Staphylococcus sp.; strain GC 4547; broth dilution, 18 hours at 35° C.) of the same compound?
The value was 64 µg/mL (≈ 62.3 µM).

What about the “MIC Coagulase Negative Staphylococcus (GC 4548)” value (Staphylococcus sp.; strain GC 4548; broth dilution, 18 hours at 35° C.) of the same compound?
The value was 64 µg/mL (≈ 62.3 µM).

What about the “MIC Coagulase Negative Staphylococcus (GC 4549)” value (Staphylococcus sp.; strain GC 4549; broth dilution, 18 hours at 35° C.) of the same compound?
Its value is 32 µg/mL (≈ 31.1 µM).

What about the “MIC Coagulase Negative Staphylococcus (GC 4551)” value (Staphylococcus sp.; strain GC 4551; broth dilution, 18 hours at 35° C.) of the same compound?
Its value is 64 µg/mL (≈ 62.3 µM).

What about the “MIC Coagulase Negative Staphylococcus (GC 6257)” value (Staphylococcus sp.; strain GC 6257; broth dilution, 18 hours at 35° C.) of the same compound?
The value was 32 µg/mL (≈ 31.1 µM).

What about the “MIC Streptococcus pneumoniae (ATCC 6301)” value (Streptococcus sp.; strain ATCC 6301) of the same compound?
Its value is 4 µg/mL (≈ 3.89 µM).

What about the “MIC Streptococcus pneumoniae (GC 1894)” value (Streptococcus sp.; strain GC 1894) of the same compound?
The value was 2 µg/mL (≈ 1.95 µM).

What about the “MIC Streptococcus pyogenes (GC 4563)” value (Streptococcus sp.; strain GC 4563) of the same compound?
Its value is 8 µg/mL (≈ 7.78 µM).

What about the “MIC Streptococcus agalactiae (GC 4564)” value (Streptococcus sp.) of the same compound?
Its value is 16 µg/mL (≈ 15.6 µM).

What about the “MIC Streptococcus pneumoniae (GC 4565)” value (Streptococcus sp.) of the same compound?
Its value is 4 µg/mL (≈ 3.89 µM).

And the “MIC Escherichia coli (ATCC 25922)” value (Escherichia coli)?
Its value is greater than 64 µg/mL.

And the “MIC Escherichia coli (GC 4559)” value (Escherichia coli)?
The value was greater than 64 µg/mL.

What about the “MIC Escherichia coli (GC 4560)” value (Escherichia coli) of the same compound?
Its value is 32 µg/mL (≈ 31.1 µM).
